According to patent US20200385371A1 (Propellon Therapeutics Inc., priority 2017, published 2020):
Like-named read-outs stand apart in the source and are kept apart here.

Legend:
WDR5 [1] = molecular target: T1, WDR5 (Homo sapiens, UniProt P61964); experiment: Fluorescence Polarization (FP) binding assay
Description: H3 (1-15) ([…]), and 9-Ala-FAM ((Ac)-[…]-(Ahx-Ahx)-K(5,6-FAM)) (where Ahx represents 6 amino hexanoic acid linkers) peptides for WDR5 were synthesized, N-terminal-labeled with isothiocyanate-fluorescein, and purified by Tufts University Core Services (Boston, Mass.). Compound binding assays were performed at a constant labeled peptide concentration of 30 or 20 nM for H3 (1-15) and 9-Ala-FAM respectively. WDR5 concentrations of 0.3 μM for H3 (1-15) and 0.05 μM for 9-Ala-FAM were used. For both the H3 (1-15) and 9-Ala-FAM peptides, 80 mM sodium phosphate buffer (pH 6.5), 20 mM KCl, and 0.008% Triton X-100 was used. For the H3 (1-15) peptide, FP assays were measured in 10 μl aliquots in 384-well Axygen plates using a Synergy 4 microplate reader (BioTek) with an excitation wavelength of 485 nm and emission wavelength of 528 nm. For the 9-Ala-FAM peptide, FP assays were measured in 125 μl aliquots in 96 well Microfluor plates using a ViewLux instrument (Perkin Elmer) with an excitation wavelength of 480 nm and emission wavelength of 540 nm. To determine Kdsp values, the data were fit to a hyperbolic function using Sigma Plot software (Systat Software). The Kdisp values represent the average of quadruplicate measurements.

WDR5 [2] = molecular target: T1, WDR5; experiment: Surface Plasmon Resonance (SPR) assay; type: binding; set-up: Full length WDR5 with an N-terminal His tag and C-terminal AviTag; His tag (N); made in house; host or cells: E. coli
Description: Exemplary compounds of the application were dissolved in 100% DMSO at 10 mM, assayed fresh, and then stored at −20° C. for repeat studies and other experiments. Full length WDR5 with an N-terminal His tag and C-terminal AviTag (Avidity Inc.) was expressed in E. coli with coexpression of BirA to biotin label the protein in vivo. Purification was via Ni-NTA.
SPR studies were performed using a Biacore™ T200 instrument (GE Health Sciences Inc.). Biotinylated WDR5 protein (approximately 3000RU) was stably captured to streptavidin coupled SA chips according to the manufacture's protocol (GE Health Sciences Inc.). The running buffer used was HBS-EP (20 mM Hepes pH 7.4, 150 mM NaCl, 3 mM EDTA, 0.05% P-20) plus 5% DMSO with a flow rate of 40 μl/min. For SPR analysis, 5 different concentrations of each exemplary compound of the application were sprayed into 96 or 384 well plates using an HP D300 digital dispenser. The concentration ranged from about 195 nM to about 12 nM in a two-fold series. […] Curve fitting and KD calculations were performed with the Biacore T200 Evalutation software (GE Health Sciences Inc).

[3] = Table 2, effect of difluoro substitution, read-out: KD (SPR)

How did the IC50 (WDR5 [1]) turn out when `C[C@@H]1CN(c2cc(F)c(C3=CCCN(c4ncccn4)C3)c(F)c2NC(=O)c2c[nH]c(=O)cc2C(F)F)C[C@H](C)N1C` [Example 21, N-(2,4-difluoro-3-(1-(pyrimidin-2-yl)-1,2,5,6-tetrahydropyridin-3-yl)-6-((3S,5R)-3,4,5-trimethylpiperazin-1-yl)phenyl)-4-(difluoromethyl)-6-oxo-1,6-dihydropyridine-3-carboxamide] was run?
Its IC50 is 37.1 nM.

What about the Kd (WDR5 [2]; read-out: SPR Kd) of the same molecule?
The Kd was 4.5 nM.

How did the Kd (WDR5 [2]; [3]) turn out when `C[C@@H]1CN(c2ncc(-c3cc(F)c(N4C[C@@H](C)N(C)[C@@H](C)C4)c(NC(=O)c4c[nH]c(=O)cc4C(F)(F)F)c3)cn2)C[C@H](C)O1` [reference compound] was run?
Its Kd is 48 nM.

Which IC50 (WDR5 [1]) does the source give for `C[C@@H]1CN(c2ncc(-c3c(F)cc(N4C[C@@H](C)N(C)[C@@H](C)C4)c(NC(=O)c4ccc(F)cc4C(F)(F)F)c3F)cn2)CCO1` [Example 18, N-(2,4-difluoro-3-(2-((R)-2-methylmorpholino)pyrimidin-5-yl)-6-((3S,5R)-3,4,5-trimethylpiperazin-1-yl)phenyl)-4-fluoro-2-(trifluoromethyl)benzamide formic acid] here?
The IC50 was 11 nM.

What about the Kd (WDR5 [2]; read-out: SPR Kd) of the same molecule?
Its Kd is 1.71 nM.

Which IC50 (WDR5 [1]) does the source give for `C[C@@H]1CN(c2ncc(-c3c(F)cc(N4C[C@@H](C)N(C)[C@@H](C)C4)c(NC(=O)c4cn(C)c(=O)cc4C(F)(F)F)c3F)cn2)CCO1` [Example 17, N-(2,4-difluoro-3-(2-((R)-2-methylmorpholino)pyrimidin-5-yl)-6-((3S,5R)-3,4,5-trimethylpiperazin-1-yl)phenyl)-1-methyl-6-oxo-4-(trifluoromethyl)-1,6-dihydropyridine-3-carboxamide formic acid] here?
The IC50 was 10.1 nM.

What about the Kd (WDR5 [2]; read-out: SPR Kd) of the same molecule?
Its Kd is 1.75 nM.

With `C[C@@H]1CN(c2cc(F)c(C3=CCCN(C(=O)C(C)(C)C)C3)c(F)c2NC(=O)c2c[nH]c(=O)cc2C(F)(F)F)C[C@H](C)N1C` [Example 19, N-(2,4-difluoro-3-(1-pivaloyl-1,2,5,6-tetrahydropyridin-3-yl)-6-((3S,5R)-3,4,5-trimethylpiperazin-1-yl)phenyl)-6-oxo-4-(trifluoromethyl)-1,6-dihydropyridine-3-carboxamide] as the molecule, how does the IC50 (WDR5 [1]) read?
The IC50 was 31.6 nM.

What about the Kd (WDR5 [2]; read-out: SPR Kd) of the same molecule?
Its Kd is 5.31 nM.

Which Kd (WDR5 [2]; [3]) does the source give for `C[C@@H]1CN(c2ncc(-c3ccc(N4C[C@@H](C)N(C)[C@@H](C)C4)c(NC(=O)c4c[nH]c(=O)cc4C(F)(F)F)c3)cn2)C[C@H](C)O1` [reference compound] here?
Its Kd is 2.9 nM.

How did the IC50 (WDR5 [1]) turn out when `C[C@@H]1CN(c2cc(F)c(C3=CCCN(C(=O)OC4(C)CCC4)C3)c(F)c2NC(=O)c2c[nH]c(=O)cc2C(F)(F)F)C[C@H](C)N1C` [Example 14, 1-Methylcyclobutyl 5-(2,6-difluoro-3-(6-oxo-4-(trifluoromethyl)-1,6-dihydropyridine-3-carboxamido)-4-((3S,5R)-3,4,5-trimethylpiperazin-1-yl)phenyl)-3,6-dihydropyridine-1(2H)-carboxylate] was run?
The IC50 was 10.2 nM.

What about the Kd (WDR5 [2]; read-out: SPR Kd) of the same molecule?
The Kd was 1.88 nM.

`C[C@@H]1CN(c2cc(F)c(-c3ccc(N4CCOCC4)cc3)c(F)c2NC(=O)c2c[nH]c(=O)cc2C(F)(F)F)C[C@H](C)N1C` [Example 5, N-(2,6-difluoro-4′-morpholino-4-((3S,5R)-3,4,5-trimethylpiperazin-1-yl)-[1,1′-biphenyl]-3-yl)-6-oxo-4-(trifluoromethyl)-1,6-dihydropyridine-3-carboxamide] was tested. Which IC50 (WDR5 [1]) did it give?
Its IC50 is 32.2 nM.

What about the Kd (WDR5 [2]; read-out: SPR Kd) of the same molecule?
Its Kd is 3.55 nM.

For `COCCOc1ccc(-c2c(F)cc(N3C[C@@H](C)N(C)[C@@H](C)C3)c(NC(=O)c3c[nH]c(=O)cc3C(F)(F)F)c2F)cn1` [Example 6, N-(2,4-difluoro-3-(6-(2-methoxyethoxy)pyridin-3-yl)-6-((3S,5R)-3,4,5-trimethylpiperazin-1-yl)phenyl)-6-oxo-4-(trifluoromethyl)-1,6-dihydropyridine-3-carboxamide], which IC50 (WDR5 [1]) is on record?
Its IC50 is 32.9 nM.

What about the Kd (WDR5 [2]; read-out: SPR Kd) of the same molecule?
The Kd was 2.83 nM.

With `C[C@@H]1CN(c2cc(F)c(-c3ccc(OCC4CC4)cc3)c(F)c2NC(=O)c2c[nH]c(=O)cc2C(F)(F)F)C[C@H](C)N1C` [Example 7, N-(4′-(cyclopropylmethoxy)-2,6-difluoro-4-((3S,5R)-3,4,5-trimethylpiperazin-1-yl)-[1,1′-biphenyl]-3-yl)-6-oxo-4-(trifluoromethyl)-1,6-dihydropyridine-3-carboxamide] as the molecule, how does the IC50 (WDR5 [1]) read?
The IC50 was 17.9 nM.

Which results are given for `C[C@@H]1CN(c2cc(F)c(-c3cnc(N4CCO[C@@H](C)C4)nc3)c(F)c2NC(=O)c2ccc(F)cc2C(F)(F)F)C[C@H](C)N1C` [Example 16, N-(2,4-difluoro-3-(2-((S)-2-methylmorpholino)pyrimidin-5-yl)-6-((3S,5R)-3,4,5-trimethylpiperazin-1-yl)phenyl)-4-fluoro-2-(trifluoromethyl)benzamide formic acid]?
IC50 (WDR5 [1]): 6.99 nM; Kd (WDR5 [2]; read-out: SPR Kd): 1.22 nM

`C[C@@H]1CN(c2cc(F)c(-c3ccc(N4CCOCC4)nc3)c(F)c2NC(=O)c2c[nH]c(=O)cc2C(F)(F)F)C[C@H](C)N1C` [Example 4, N-(2,4-difluoro-3-(6-morpholinopyridin-3-yl)-6-((3S,5R)-3,4,5-trimethylpiperazin-1-yl)phenyl)-6-oxo-4-(trifluoromethyl)-1,6-dihydropyridine-3-carboxamide] was tested. Which IC50 (WDR5 [1]) did it give?
Its IC50 is 31.8 nM.

What about the Kd (WDR5 [2]; read-out: SPR Kd) of the same molecule?
The Kd was 2.02 nM.

Which Kd (WDR5 [2]; [3]) does the source give for `C[C@@H]1CN(c2ncc(-c3ccc(N4C[C@@H](C)N(C)[C@@H](C)C4)c(NC(=O)c4c[nH]c(=O)cc4C(F)(F)F)c3F)cn2)C[C@H](C)O1` [reference compound] here?
Its Kd is 1.8 nM.

`C[C@@H]1CN(c2cc(F)c(C3=CCCN(C(=O)OC4(C)CCC4)C3)c(F)c2NC(=O)c2c[nH]c(=O)cc2C(F)F)C[C@H](C)N1C` [Example 22, 1-Methylcyclobutyl 5-(3-(4-(difluoromethyl)-6-oxo-1,6-dihydropyridine-3-carboxamido)-2,6-difluoro-4-((3S,5R)-3,4,5-trimethylpiperazin-1-yl)phenyl)-3,6-dihydropyridine-1(2H)-carboxylate] was tested. Which IC50 (WDR5 [1]) did it give?
Its IC50 is 23 nM.

What about the Kd (WDR5 [2]; read-out: SPR Kd) of the same molecule?
The Kd was 1.74 nM.

For `C[C@@H]1CN(c2cc(F)c(-c3cnc(N4CCO[C@@H](C)C4)nc3)c(F)c2NC(=O)c2cn(C)c(=O)cc2C(F)(F)F)C[C@H](C)N1C` [Example 12, N-(2,4-difluoro-3-(2-((S)-2-methylmorpholino)pyrimidin-5-yl)-6-((3S,5R)-3,4,5-trimethylpiperazin-1-yl)phenyl)-1-methyl-6-oxo-4-(trifluoromethyl)-1,6-dihydropyridine-3-carboxamide formic Acid], which IC50 (WDR5 [1]) is on record?
The IC50 was 24.6 nM.

What about the Kd (WDR5 [2]; read-out: SPR Kd) of the same molecule?
Its Kd is 1.42 nM.

How did the IC50 (WDR5 [1]) turn out when `C[C@@H]1CN(c2cc(F)c(-c3ccnc(OCC4CC4)c3)c(F)c2NC(=O)c2c[nH]c(=O)cc2C(F)(F)F)C[C@H](C)N1C` [Example 3, N-(3-(2-(cyclopropylmethoxy)pyridin-4-yl)-2,4-difluoro-6-((3S,5R)-3,4,5-trimethylpiperazin-1-yl)phenyl)-6-oxo-4-(trifluoromethyl)-1,6-dihydropyridine-3-carboxamide] was run?
Its IC50 is 26.6 nM.

What about the Kd (WDR5 [2]; read-out: SPR Kd) of the same molecule?
Its Kd is 3.39 nM.

`C[C@@H]1CN(c2cc(F)c(-c3ccc(OCC4CC4)nc3)c(F)c2NC(=O)c2c[nH]c(=O)cc2C(F)(F)F)C[C@H](C)N1C` [Example 1, N-(3-(6-(cycloproylmethoxy)pyridin-3-yl)-2,4-difluoro-6-((3S,5R)-3,4,5-trimethylpiperazin-1-yl)phenyl)-6-oxo-4-(trifluoromethyl)-1,6-dihydropyridine-3-carboxamide] was tested. Which Kd (WDR5 [2]; read-out: SPR Kd) did it give?
The Kd was 0.59 nM.
